The values below come from publication PMC9615537 (Journal of Pharmaceutical Analysis, 2022).

This data set is described as follows: Metabolic identification of PEP06 in vitro, all matrices together. Type of data set: in vitro ADME. The following applies: semi-quantitative, Table S3.

With RGDRGDMHSHRDFQPVLH [M6], the “Relative abundance of metabolite (peak area vs parent)” value is recorded as “most abundant metabolite”.
